The values below come from patent publication US20250345316A1, “METHODS OF INCREASING LYMPHOCYTE TRAFFICKING TO THE COLON BY STIMULATING RETINOIC ACID RECEPTORS AND ARYL HYDROCARBON RECEPTORS” (President and Fellows of Harvard College, priority 2024, published 2025).

The subject of one assay is OT-1 cells. Briefly: Short-term competitive homing of OT-1 cells. In kind it is in vivo, mice. To be noted: 5×10^6 cells from each treatment transferred into naïve B6 recipients; without Am80. On the procedure: Short-term Competitive Homing: OT-1 cells, either in vitro or in vivo generated, were distinguished by congenic markers CD45.1/CD45.2, mixed at around 1:1 ratio and adoptively transferred into recipient animals. At 20-24 hours post transfer, mice were sacrificed, and tissues were harvested for analysis. Ratio of transferred cells were obtained, and homing index was calculated.
Briefly, two GFP+OT-1 transgenic mice with or without expression of the congenic marker CD45.1 were used per experiment (mouse A and mouse B), and OT-1 cells were isolated from their spleens. OT-1 cells from different mice ([A] and [B]) were subjected to different treatments (A and B, including culture, genetic manipulation, in vivo activation and re-harvesting, etc). The cells were then mixed at an around 1:1 ratio and injected into a B6 recipient (GFP−). At timepoints (determined for each experiment), with or without additional in vivo treatments (determined by each experiment), tissues were analyzed by flow cytometry and the ratio of [A] and [B] in each tissue was obtained. Homing index and normalized homing index (see equation) were calculated.
As a supplementation to in vitro approaches, the gut homing capacity of in vivo generated effector T cells was tested in the disclosed vaccination strategy. […]

For assay [1], the system named is α4β7, GPR15 and CCR9 on OT-1 cells. Briefly: OT-1 in vivo assay: expression of gut homing molecules on OT-1 cells in blood and draining lymph nodes. More on the design: species or system mice. To be noted: for GPR15 on OT-1 cells (effector CD8+ T cells): day 4 blood, L-KYN 500 nmol in PEG-400; for α4β7 and CCR9 expression: subcutaneous vaccination model, supplementation. The procedure:
At timepoints defined by individual experiments, tissues were harvested and analyzed.
(§1) Cell Count and Flow Cytometry and Cell Count: For cell counting, samples were diluted and counted on a BD Accuri C6 Plus cytometer. For flow cytometry, samples were run on a Beckman CytoFLEX cytometer, and analysis was done using Flow Jo software V10.
The experimental approach is shown in the schematic in FIG. 2. […] Tissues were harvest on day 7 and analyzed by flow cytometry.

The subject of the next assay is AHR. The assay can be described thus: CRISPR knockout of AHR in OT-1 cells, co-transfer with control cells. In kind it is in vivo, mouse. The text has this:
CRISPR Knockout of AHR and GPR15: Naïve GFP+OT-1 cells were isolated with mouse CD8a+ T Cell Isolation Kit (Miltenyi) and nucleofected with Cas9 protein, complexed with either control (CD19) gRNA, or GPR15 gRNA. gRNAs were designed using Synthego online tool and synthesized by Synthego. The procedure was done using a Lonza nucleofector, with the P3 Primary cell Kit. Cells were distinguished based on expression of congenic marker CD45.1 and co-transferred into recipient mice. Recipient mice were immunized, and tissues were analyzed at different timepoints.
Loss of AHR abrogated ligand-depended upregulation of GPR15. Naïve GFP+OT-1 cells were nucleofected with Cas9 protein, complexed with either control (CD19) gRNA, or AHR gRNA. Transfected cells were distinguished based on expression of congenic marker CD45.1 and co-transferred into recipient mice. Recipient mice were immunized with OVA+CpG, and injected with DMSO, Am80, 10-CL-BBQ or Am80+10-CL-BBQ (same dose and regimen as previously described). Flow cytometry plots, gated on OT-1 cells. […] Quantification is shown of GPR15+, α4β7+ and CCR9+ cells, percentage out of OT-1 cells in respective groups (FIGS. 21B-21D). […] Control cells used were CD45.1^− and […] cells were CD45.1+.

The test system of assay [2] is OT-1 cells (antigen-specific CD8+ T cells). Briefly: OT-1 in vivo assay (parenteral immunization): OT-1 cells in tissues by flow cytometry. More on the design: species or system mice. As to conditions: for OT-1 effector cells in the colon and cecum: B6 mice, OVA+CpG s.c. day 0, Am80 500 nmol, 10-CL-BBQ 164 nmol s.c. day 0, 1, 2; for OT-1 effector cells in the colon and cecum / OT-1 cells in the small intestine: day 7; for OT-1 cells in the small intestine: same regimen; for CD8+ T cell trafficking to the small intestine / tissue residence: supplementation. On the procedure: OT-1 in vivo Assay (Parenteral Immunization): Mice were adoptively transferred with OT-1 cells, and subsequently immunized with […] chicken ovalbumin (OVA) and an adjuvant CpG-1668 (0.5 nmol). On day 0.1 and 2, mice were injected s.c. with solvent control (DMSO, 10% v/v in PEG-400), retinoic acid receptor agonist Am80 (500 nmol in PEG-400), AHR agonist 10-CL-BBQ (164 nmol in PEG-400), or Am80+10-CL-BBQ (same dose). At timepoints defined by individual experiments, tissues were harvested and analyzed.
Preparing intestinal samples for flow cytometry: Small intestine (duodenum to ileum) was dissected out and flushed. Peyer's patches and fat were removed, and the tissue was cut into 4-5 pieces, and flipped to expose the luminal surface. Colon and cecum were dissected out, flushed and cut open longitudinally.
as §1
The experimental approach is shown in the schematic in FIG. 2. Antigen-specific CD8+ T cells (OT-1 cells, recognizing a peptide within the chicken ovalbumin protein) were adoptively transferred (1×10^5 cells) to B6 recipient mice on day −1, and B6 recipients were vaccinated subcutaneously (s.c.) on day 0 with 100 μg chicken ovalbumin (OVA) and an adjuvant CpG-1668 (0.5 nmol). On day 0.1 and 2, mice were injected subcutaneously with solvent control (DMSO, 10% v/v in PEG-400), retinoic acid receptor agonist Am80 (500 nmol in PEG-400), AHR agonist 10-CL-BBQ (164 nmol in PEG-400), or Am80+10-CL-BBQ (same dose). Tissues were harvest on day 7 and analyzed by flow cytometry.
A general note: A flow cytometer gives signals particle by particle.

The next assay has as its system OT-1 CD8+ T cells. Briefly: OT-1 in vitro culture to generate GPR15+CD8+ T cells. The class given is cell-based, mouse. To be noted: day 4 post activation. The procedure:
OT-1 in vitro Culture: OT-1 splenocytes were pulsed for 1 hour with 1 μg OVA peptide (257-264) and cultured overnight in complete T cell (RPMI) media. The next day, CD8+ T cells were isolated using mouse CD8a+ T Cell Isolation Kit (Miltenyi) and cultured with various treatment conditions.
Various treatment conditions were tested for the efficiency of generating GPR15^+CD8^+ T cells. OT-1 splenocytes were pulsed for 1 hour with 1 μg OVA peptide (257-264) and cultured overnight in complete RPMI media. The next day, CD8^+ T cells were isolated using mouse CD8a^+ T Cell Isolation Kit (Miltenyi) and cultured with various treatment conditions. […] 4 days post activation. Plots were pre-gated on CD8a^+ cells. […] GPR15^+ T cells peaked around 4-5 days post activation. Cells were treated with IL-2+10-CL-BBQ+TGF-β1.

Assay [3] relates to OT-1 cells (antigen-specific CD8+ T cells). Briefly: OT-1 in vivo assay (parenteral immunization): OT-1 cells in tissues by flow cytometry. Also noted: species or system mice.
Where [4] appears, read: 10 nM ATRA added concurrently with IL-2+TGF-β1+10-CL-BBQ.

As to `O=c1c2cccc3cccc(c32)c2nc3ccc(Cl)cc3n12` [10-CL-BBQ, 10-Chloro-7H-benzimidazo[2,1-a]benzl[de]isoquinolin-7-one], the “trafficking of in vitro cultured cells to small and large intestine” value in the assay with OT-1 cells is on record as “did not constitute trafficking”. For the same compound, the “GPR15 expression on OT-1 cells in the blood” value in assay [1] (blood, day 4-6) was “most robust”. Further, in assay [1] (blood, day 5), the “GPR15 expression on CD8a+ cells of the recipient (mostly naïve)” value is “did not affect” and the “GPR15 on adoptively transferred OT-1 cells (effector phase)” value is on record as “up-regulated”. Moreover, the “GPR15 on OT-1 cells (effector CD8+ T cells)” value in assay [1] is recorded as “significantly up-regulated”. Also, the “GPR15 on OT-1 cells nucleofected with AHR gRNA” value in the assay with AHR (day 5 blood, compared to control gRNA cells) is on record as “not 10-CL-BBQ dependent upregulation”. In addition, the “representation of AHR KO cells in the colon and cecum (ratio [Ctrl] to [AHR knockout], normalized to spleen)” value in the assay with AHR (day 7 post immunization) is “under-represented”. Further, in assay [2], the “OT-1 effector cells in the colon and cecum” value was “some increase”; the “OT-1 cells in the small intestine” value is “no effect”.

In the case of `CC1=C(/C=C/C(C)=C/C=C/C(C)=C/C(=O)O)C(C)(C)CCC1` [ATRA, 3,7-Dimethyl-9-(2,6,6-trimethyl-1-cyclohexen-1-yl)-2E,4E,6E,8E,-nonatetraenoic acid], in the assay on OT-1 CD8+ T cells (10 nM ATRA added 24-48 hours after IL-2+TGF-β1+10-CL-BBQ), the “α4β7^high GPR15+ population” value is reported as “enabled the generation of an α4β7^high GPR15+ population”. Further, in the assay on OT-1 CD8+ T cells (setting [4]), the GPR15 expression entry is reported as “completely abrogated” and the “trafficking phenotype (α4β7, CCR9)” value is “skewed cells towards a small intestine trafficking phenotype”. Besides, the “α4β7 and CCR9 expression” value in assay [1] was “increased”. In addition, in assay [2] (subcutaneous vaccination model), the “CD8+ T cell trafficking to the small intestine” value is given as “increased” and the tissue residence result was “promoted”.

For the compound `CC1(C)CCC(C)(C)c2cc(NC(=O)c3ccc(C(=O)O)cc3)ccc21` [Am80, 4-[[(5,6,7,8-Tetrahydro-5,5,8,8-tetramethyl-2-naphthalenyl)amino]carbonyl]benzoic acid], the “α4β7 and CCR9 expression” value in assay [1] is “increased”. In addition, in assay [2], the “OT-1 effector cells in the colon and cecum” value is recorded as “some increase”; the “OT-1 cells in the small intestine” value is recorded as “increased”. Moreover, in assay [2] (subcutaneous vaccination model), the “optimal trafficking to the large intestine” value is “not sufficient”, the “CD8+ T cell trafficking to the small intestine” value is “increased” and the tissue residence result is reported as “promoted”.

In the case of `Cc1ccccc1N=Nc1ccc(NC(=O)c2ccnn2C)c(C)c1` [CH-223191], the “effects of 10-CL-BBQ on colon trafficking” value in assay [3] (250 nmol in PEG-400, given with 10-CL-BBQ) is listed as “antagonized”.

As for `Nc1ccccc1C(=O)C[C@H](N)C(=O)O` [L-KYN, L-kynurenine], in assay [1], the “GPR15 on OT-1 cells (effector CD8+ T cells)” value is listed as “did not increase”. Also, the “colon trafficking (OT-1 cells out of total CD8+ T cells)” value in assay [2] (alone) and in assay [2] (in combination with Am80) was “did not increase” in each case.

For `FC(F)(F)c1ccc(Nc2nccc(-c3cccc(Cl)c3)n2)cc1` [VAF347], in assay [3] (250 nmol in PEG-400), the “colon trafficking (OT-1 cells out of total CD8+ T cells)” value is given as “increased colon trafficking but at a lower efficacy than 10-CL-BBQ”.
